Measurements published in publication PMC12538432 (The Journal of Biological Chemistry, 2025).

How the values were obtained:
[1] = molecular target: T1, WT CYP3A4 (Homo sapiens, UniProt P08684); assay: Equilibrium spectral binding titration of WT CYP3A4; conditions: for Spectral ligand type: WT CYP3A4, Soret band shift; for Spectral changes / low-to-high spin transition induced: WT CYP3A4, saturating ligand
T1 construct: made in house
Protocol: (§1) Fitting was performed using SigmaPlot software (Grafiti LLC).

[2] = molecular target: T2, CYP3A4 R212A (Homo sapiens, UniProt P08684, R212A); assay: Equilibrium spectral binding titration of CYP3A4 R212A mutant
T2 construct: made in house
Protocol: as §1

[3] = molecular target: CYP3A4 S119A (Homo sapiens, UniProt P08684, S119A); assay: biochemical
Protocol: Equilibrium titrations of CYP3A4 were conducted in a Cary 300 spectrophotometer at an ambient temperature in 0.1 M phosphate, pH 7.4, containing 20% glycerol and 1 mM dithiothreitol (buffer A). […] Spectral dissociation constants (Kd) were determined from fittings to the plots of the maximal absorbance change (peak-to-trough separations in the difference spectra; ΔA) versus ligand concentration. Fitting was performed using SigmaPlot software (Grafiti LLC). Equation used for one-site ligand binding: Y=X/(Kd+X) where Y represents the fraction of the occupied site, X is the total ligand concentration, and Kd is the equilibrium dissociation constant. Equation used for two-site ligand binding: Y=(Amax1·X/(Kd1+X))+(Amax2·X/(Kd2+X)) where Y is total specific binding, X is the total ligand concentration, Amax1 and Amax2 are maximum absorbance changes due to specific binding to the high- and low-affinity sites, and Kd1 and Kd2 are the dissociation constants for the high- and low-affinity sites, respectively.

[4] = molecular target: T3, CYP3A4 (wild type) (Homo sapiens, UniProt P08684); assay: Equilibrium spectral binding titration of WT CYP3A4; conditions: human, recombinant Δ3-22 truncated wild-type CYP3A4 protein, pH 7.4; WT CYP3A4, second of two binding sites; read-out: Kd2 (two-site binding fitting)
T3 construct: made in house
Protocol: as §1

[5] = upon intravenous and immediate-release oral administration ref 32; cited from earlier work

T1 sequence (P08684 with tags, fused parts or gaps): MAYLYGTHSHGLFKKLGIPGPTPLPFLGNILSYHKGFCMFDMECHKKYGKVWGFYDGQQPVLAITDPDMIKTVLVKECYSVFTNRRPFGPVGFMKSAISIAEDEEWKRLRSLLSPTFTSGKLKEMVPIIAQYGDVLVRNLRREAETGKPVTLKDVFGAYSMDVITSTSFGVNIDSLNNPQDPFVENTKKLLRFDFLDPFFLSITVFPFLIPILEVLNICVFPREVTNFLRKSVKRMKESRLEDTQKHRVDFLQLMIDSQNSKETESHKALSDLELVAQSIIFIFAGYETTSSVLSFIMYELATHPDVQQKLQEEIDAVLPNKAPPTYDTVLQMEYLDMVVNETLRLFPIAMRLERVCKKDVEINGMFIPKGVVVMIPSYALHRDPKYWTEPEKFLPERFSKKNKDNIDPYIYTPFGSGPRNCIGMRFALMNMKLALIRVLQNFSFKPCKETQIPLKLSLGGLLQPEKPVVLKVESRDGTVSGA
CYP3A4 S119A, sequence (P08684 with tags, fused parts or gaps S119A): as the sequence (P08684 with tags, fused parts or gaps) above, with S99A counted along it
T3 sequence (P08684 with tags, fused parts or gaps): as the sequence (P08684 with tags, fused parts or gaps) above
T2 sequence (P08684 with tags, fused parts or gaps R212A): as the sequence (P08684 with tags, fused parts or gaps) above, with R192A counted along it

Row | Compound | Spectral ligand type [1] | Spectral ligand type ([1]; listed as cannabidiol) | Spectral changes / low-to-high spin transition induced [1] | Spectral changes / low-to-high spin transition induced ([1]; listed as cannabinol) | Kd [1] | Kd [2] | Kd [3] | Kd [4] | Observed absorbance change during association to the high-affinity site ([1]; WT CYP3A4, share of total absorbance change) | half-life [5]
1 | C=C(C)[C@@H]1CCC(C)=C[C@H]1c1c(O)cc(CCCCC)cc1O [CBD, cannabidiol] | type I spectral changes | type I ligands | nearly complete high-spin transition |  |  |  |  |  |  | 
2 | CCCCCc1cc(O)c2c(c1)OC(C)(C)c1ccc(C)cc1-2 [CBN, cannabinol] |  |  | only minor spectral changes | only negligible spectral changes |  |  |  |  |  | 
3 | CCCCCc1cc(O)c2c(c1)OC(C)(C)[C@@H]1CCC(C)=C[C@@H]21 [THC, (−)-trans-Δ^9-tetrahydrocannabinol] | type I ligand |  | nearly complete low-to-high spin transition |  | 1.9 µM | 2.8 ± 0.3 µM | 3 ± 0.3 µM |  |  | 
4 | NC(=O)C(c1ccccc1)(c1ccccc1)[C@@H]1CCN(CCc2ccc3c(c2)CCO3)C1 [darifenacin] | type I ligand |  |  |  |  |  |  | 712 µM | ~70% | 3 to 4 h
